# From patent publication US20240285652A1, “AMORPHOUS NANO-MOLECULAR AGGREGATE COMPOSED OF ORGANIC MATERIAL, INORGANIC MATERIAL, OR SALT THEREOF, AND METHOD FOR PREPARING SAME” (SCAI THERAPEUTICS CO., LTD., priority 2021, published 2024)
# Assay: Corneal permeation experiment in Ussing chamber
# Format: in vitro ADME
# Details: pig cornea, 37° C., after 18 hours
# Protocol: The corneal permeation experiment was conducted with reference to the contents of “Lee et. al, “Modulating the Transport Characteristics of Bruch's Membrane With Steroidal Glycosides and its Relevance to Age-Related Macular Degeneration (AMD). Invest. Ophthalmol. Vis. Sci. 2015, 56, 8403, 2015,” which is an already published paper. […] Basically, the drug is put into the donor chamber of the Ussing chamber, the corneal part of the pig eye is collected in a circular shape of 8 mm in size, and other tissues attached to the cornea were removed, and then fixed in place of the membrane, and the solution permeating the membrane was received in the receiving chamber, and at this time, it was placed in a constant temperature chamber in which the temperature at which diffusion occurs was adjusted to 37° C., which is close to human body temperature, and stored. After a certain amount of time passed, the diffusion properties of each sample could be identified by measuring the concentration of the solution in each donor chamber and receiving chamber. For the concentration, UV/VIS spectrum (Evolution201 UV/Vis; Thermo) was used, and the concentration was measured using a peak height at 420 nm.
structure (smiles),measurement,value
"CCN(CC)CCNC(=O)c1c(C)[nH]c(/C=C2\C(=O)Nc3ccc(F)cc32)c1C [Comparative Example 2, sunitinib-malate]","Drug in corneal tissue (μg, Mean ± SD)",65.7 ± 7.5 µg
same,"Drug in receiver (μg, Mean ± SD)",8.8 ± 5.8 µg
same,"Transport percentage* (%, Mean ± SD)",1.6 ± 1.1%
